In patent US10730874B2 (Shire Human Genetic Therapies, Inc., priority 2018, dated 2020):

target: human activated kallikrein enzyme (plasma kallikrein) (Homo sapiens (Human), UniProt P03952); experiment: Inhibition of human activated plasma kallikrein, fluorogenic peptide substrate assay, 500 pM enzyme format; type: biochemical; conditions: 500 pM activated kallikrein enzyme, 300 uM Pro-Phe-Arg-7-amido-4-methylcoumarin substrate, 30 min preincubation, 10 min at RT; read-out: Primary Dose Response Assay: Average EC50
Protocol: Example compounds were evaluated for inhibition of the human activated kallikrein enzyme in two formats of an assay employing a fluorogenic peptide substrate. In one assay format, the concentrations of reagents were as follows: 20 mM Tris pH 7.5, 1 mM EDTA, 150 mM sodium chloride, 0.1% PEG-400, 0.1% Triton X-100, 500 pM activated kallikrein enzyme, 300 uM Pro-Phe-Arg-7-amido-4-methylcoumarin substrate. Prior to reaction initiation with substrate, enzyme and inhibitors were preincubated for 30 min at RT. After initiation with substrate, reactions were incubated for 10 min at RT and fluorescence emission at 460 nm from 380 nm excitation measured with a microplate reader. In another assay format, the concentrations of reagents were as follows: 20 mM Tris pH 7.5, 1 mM EDTA, 150 mM sodium chloride, 0.1% PEG-400, 0.1% Triton X-100, 5 pM activated kallikrein enzyme, 300 uM Pro-Phe-Arg-7-amido-4-methylcoumarin substrate. Prior to reaction initiation with substrate, enzyme and inhibitors were preincubated for 30 min at RT. After initiation with substrate, reactions were incubated for 18 h at RT and fluorescence emission at 460 nm from 380 nm excitation measured with a microplate reader.

Chain of human activated kallikrein enzyme (plasma kallikrein) (P03952 391-638): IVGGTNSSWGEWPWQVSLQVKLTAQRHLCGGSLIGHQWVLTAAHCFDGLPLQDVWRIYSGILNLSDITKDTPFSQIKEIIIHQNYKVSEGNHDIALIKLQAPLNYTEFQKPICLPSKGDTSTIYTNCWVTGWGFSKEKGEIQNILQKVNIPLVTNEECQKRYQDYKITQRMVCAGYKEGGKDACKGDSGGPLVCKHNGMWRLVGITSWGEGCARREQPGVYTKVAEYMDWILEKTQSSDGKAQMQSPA
Chain of human activated kallikrein enzyme (plasma kallikrein) (P03952 20-390 partner): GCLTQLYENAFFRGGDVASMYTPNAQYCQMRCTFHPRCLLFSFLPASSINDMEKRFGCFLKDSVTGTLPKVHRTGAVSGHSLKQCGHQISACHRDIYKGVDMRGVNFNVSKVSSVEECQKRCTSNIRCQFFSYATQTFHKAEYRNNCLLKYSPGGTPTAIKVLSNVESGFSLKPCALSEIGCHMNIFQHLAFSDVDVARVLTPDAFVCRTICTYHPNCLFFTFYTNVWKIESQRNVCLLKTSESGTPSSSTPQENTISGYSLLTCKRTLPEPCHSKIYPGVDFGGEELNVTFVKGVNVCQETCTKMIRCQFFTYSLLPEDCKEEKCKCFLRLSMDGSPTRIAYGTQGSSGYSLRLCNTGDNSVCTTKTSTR

EC50 [nM] | SMILES
10 to 100 | O=C(NCCc1ncn2ccc(Cl)cc12)c1cnn(Cc2cn3cc(C4CC4)ccc3n2)c1 [Example I-94, N-(2-(7-chloroimidazo[1,5-a]pyridin-1-yl)ethyl)-1-((6-cyclopropylimidazo[1,2-a]pyridin-2-yl)methyl)-1H-pyrazole-4-carboxamide]
< 1 | Cc1nnc(C)n1-c1cc(C2CC2)cn2cc(Cn3cc(C(=O)NCc4ncn5ccc(Cl)c(F)c45)nn3)nc12 [Example I-253, N-((7-chloro-8-fluoroimidazo[1,5-a]pyridin-1-yl)methyl)-1-((6-cyclopropyl-8-(3,5-dimethyl-4H-1,2,4-triazol-4-yl)imidazo[1,2-a]pyridin-2-yl)methyl)-1H-1,2,3-triazole-4-carboxamide]
< 1 | COC(=O)C1CCN(c2cc(C3CC3)nn3cc(Cn4cc(C(=O)NCc5ncn6ccc(Cl)c(F)c56)nn4)nc23)C1 (centres unmarked) [Example I-266, methyl 1-(2-((4-(((7-chloro-8-fluoroimidazo[1,5-a]pyridin-1-yl)methyl)carbamoyl)-1H-1,2,3-triazol-1-yl)methyl)-6-cyclopropylimidazo[1,2-b]pyridazin-8-yl)pyrrolidine-3-carboxylate]
< 1 | O=C(NCc1ncn2ccc(Cl)c(F)c12)c1cn(Cc2cn3cc(C4CC4)cc(Cn4cccn4)c3n2)nn1 [Example I-201, 1-((8-((1H-pyrazol-1-yl)methyl)-6-cyclopropylimidazo[1,2-a]pyridin-2-yl)methyl)-N-((7-chloro-8-fluoroimidazo[1,5-a]pyridin-1-yl)methyl)-1H-1,2,3-triazole-4-carboxamide]
< 1 | O=C(O)CCc1cc(C2CC2)cn2cc(Cn3cc(C(=O)NCc4ncn5ccc(Cl)cc45)cn3)nc12 [Example I-100c, 3-(2-((4-(((7-chloroimidazo[1,5-a]pyridin-1-yl)methyl)carbamoyl)-1H-pyrazol-1-yl)methyl)-6-cyclopropylimidazo[1,2-a]pyridin-8-yl)propanoic acid]
< 1 | O=C(NCc1ncn2ccc(Cl)cc12)c1cnn(Cc2cn3cc(C4CC4)cc(C(F)(F)F)c3n2)c1 [Example I-143, N-((7-chloroimidazo[1,5-a]pyridin-1-yl)methyl)-1-((6-cyclopropyl-8-(trifluoromethyl)imidazo[1,2-a]pyridin-2-yl)methyl)-1H-pyrazole-4-carboxamide]
< 1 | O=C(NCc1ncn2ccc(Cl)c(F)c12)c1cn(Cc2cn3cc(C4CC4)cc(-n4cn[nH]c(=O)c4=O)c3n2)nn1 [Example I-247, N-((7-chloro-8-fluoroimidazo[1,5-a]pyridin-1-yl)methyl)-1-((6-cyclopropyl-8-(5,6-dioxo-5,6-dihydro-1,2,4-triazin-4(1H)-yl)imidazo[1,2-a]pyridin-2-yl)methyl)-1H-1,2,3-triazole-4-carboxamide]
< 1 | O=C(NCc1ncn2ccc(Cl)c(F)c12)c1nnc(Cc2cn3cc(C4CC4)ccc3n2)o1 [Example I-137, N-((7-chloro-8-fluoroimidazo[1,5-a]pyridin-1-yl)methyl)-5-((6-cyclopropylimidazo[1,2-a]pyridin-2-yl)methyl)-1,3,4-oxadiazole-2-carboxamide]
100 to 2000 | O=C(NCc1ncn2ccc(Cl)c(F)c12)c1cn(Cc2cc3ccc(Cl)cc3[nH]2)nn1 [Example I-222, 1-((6-chloro-1H-indol-2-yl)methyl)-N-((7-chloro-8-fluoroimidazo[1,5-a]pyridin-1-yl)methyl)-1H-1,2,3-triazole-4-carboxamide]
< 1 | O=C(O)CCc1nn(Cc2cn3cc(C4CC4)ccc3n2)cc1C(=O)NCc1ncn2ccc(Cl)cc12 [Example I-73, 3-(4-(((7-chloroimidazo[1,5-a]pyridin-1-yl)methyl)carbamoyl)-1-((6-cyclopropylimidazo[1,2-a]pyridin-2-yl)methyl)-1H-pyrazol-3-yl)propanoic acid]
< 1 | O=C(O)c1ccn(Cc2cc(C3CC3)cn3cc(Cn4cc(C(=O)NCc5ncn6ccc(Cl)c(F)c56)nn4)nc23)n1 [Example I-202, 1-((2-((4-(((7-chloro-8-fluoroimidazo[1,5-a]pyridin-1-yl)methyl)carbamoyl)-1H-1,2,3-triazol-1-yl)methyl)-6-cyclopropylimidazo[1,2-a]pyridin-8-yl)methyl)-1H-pyrazole-3-carboxylic acid]
< 1 | [2H]C([2H])(NC(=O)c1cnn(Cc2cn3cc(C4CC4)ccc3n2)c1)c1ncn2ccc(Cl)cc12 [Example I-90, N-((7-chloroimidazo[1,5-a]pyridin-1-yl)methyl-d2)-1-((6-cyclopropylimidazo[1,2-a]pyridin-2-yl)methyl)-1H-pyrazole-4-carboxamide]
10 to 100 | O=C(NCc1ncn2ccc(Cl)c(F)c12)c1cnn(Cc2ccc3nccnc3c2)c1 [Example I-293, N-((7-chloro-8-fluoroimidazo[1,5-a]pyridin-1-yl)methyl)-1-(quinoxalin-6-ylmethyl)-1H-pyrazole-4-carboxamide]
< 1 | O=C(NCc1ncn2ccc(Cl)c(F)c12)c1cnn(Cc2cn3cc(C4CC4)cc(C4COC4)c3n2)c1 [Example I-215, N-((7-chloro-8-fluoroimidazo[1,5-a]pyridin-1-yl)methyl)-1-((6-cyclopropyl-8-(oxetan-3-yl)imidazo[1,2-a]pyridin-2-yl)methyl)-1H-pyrazole-4-carboxamide]
10 to 100 | O=C(NCc1ncn2ccc(Br)cc12)c1cnn(Cc2cn3cc(Br)c(Cl)cc3n2)c1 [Example I-37, 1-((6-bromo-7-chloroimidazo[1,2-a]pyridin-2-yl)methyl)-N-((7-bromoimidazo[1,5-a]pyridin-1-yl)methyl)-1H-pyrazole-4-carboxamide]
< 1 | O=C(NCc1ncn2ccc(Cl)c(F)c12)c1cn(Cc2cn3cc(C4CC4)cc(-c4cnoc4)c3n2)nn1 [Example I-225, N-((7-chloro-8-fluoroimidazo[1,5-a]pyridin-1-yl)methyl)-1-((6-cyclopropyl-8-(isoxazol-4-yl)imidazo[1,2-a]pyridin-2-yl)methyl)-1H-1,2,3-triazole-4-carboxamide]
10 to 100 | O=C(NCc1ncn2ccc(Cl)cc12)c1nnc(Cc2cn3cc(C4CC4)ccc3n2)s1 [Example I-70, N-((7-chloroimidazo[1,5-a]pyridin-1-yl)methyl)-5-((6-cyclopropylimidazo[1,2-a]pyridin-2-yl)methyl)-1,3,4-thiadiazole-2-carboxamide]
< 1 | O=C(NCc1ncn2ccc(Cl)c(F)c12)c1nnn(Cc2cn3nc(C4CC4)ccc3n2)n1 [Example I-289, N-((7-chloro-8-fluoroimidazo[1,5-a]pyridin-1-yl)methyl)-2-((6-cyclopropylimidazo[1,2-b]pyridazin-2-yl)methyl)-2H-tetrazole-5-carboxamide]
< 1 | O=C(NCc1ncn2ccc(Cl)c(F)c12)c1cn(Cc2cn3cc(C4CC4)cc(N4CCOCC4)c3n2)nn1 [Example I-173, N-((7-chloro-8-fluoroimidazo[1,5-a]pyridin-1-yl)methyl)-1-((6-cyclopropyl-8-morpholinoimidazo[1,2-a]pyridin-2-yl)methyl)-1H-1,2,3-triazole-4-carboxamide]
10 to 100 | COC(=O)c1ccc2nc(Cn3cc(C(=O)NCc4ncn5ccc(Cl)cc45)cn3)cn2c1 [Example I-91, methyl 2-((4-(((7-chloroimidazo[1,5-a]pyridin-1-yl)methyl)carbamoyl)-1H-pyrazol-1-yl)methyl)imidazo[1,2-a]pyridine-6-carboxylate]
< 1 | O=C(NCc1ncn2ccc(Br)c(F)c12)c1cn(Cc2cn3cc(C4CC4)ccc3n2)nn1 [Example I-134, N-((7-bromo-8-fluoroimidazo[1,5-a]pyridin-1-yl)methyl)-1-((6-cyclopropylimidazo[1,2-a]pyridin-2-yl)methyl)-1H-1,2,3-triazole-4-carboxamide]

SMILES | EC50 [nM]
O=C(NCc1ncn2ccc(Cl)c(F)c12)c1nnc(Cc2cn3nc(C4CC4)ccc3n2)o1 [Example I-156, N-((7-chloro-8-fluoroimidazo[1,5-a]pyridin-1-yl)methyl)-5-((6-cyclopropylimidazo[1,2-b]pyridazin-2-yl)methyl)-1,3,4-oxadiazole-2-carboxamide] | < 1
O=C(NCc1ncn2ccc(Cl)cc12)c1cnn(Cc2cn3c(Cl)c(C4CC4)ccc3n2)c1 [Example I-23, 1-((5-chloro-6-cyclopropylimidazo[1,2-a]pyridin-2-yl)methyl)-N-((7-chloroimidazo[1,5-a]pyridin-1-yl)methyl)-1H-pyrazole-4-carboxamide] | < 1
O=C(NCc1ncn2ccc(Cl)c(F)c12)c1cn(Cc2cn3cc(C4CC4)cc(C4(F)COC4)c3n2)nn1 [Example I-167, N-((7-chloro-8-fluoroimidazo[1,5-a]pyridin-1-yl)methyl)-1-((6-cyclopropyl-8-(3-fluorooxetan-3-yl)imidazo[1,2-a]pyridin-2-yl)methyl)-1H-1,2,3-triazole-4-carboxamide] | < 1
O=C(NCc1ncn2ccc(Cl)cc12)c1cnn(Cc2cn3cc(C4CC4)cc(CCO)c3n2)c1 [Example I-87, N-((7-chloroimidazo[1,5-a]pyridin-1-yl)methyl)-1-((6-cyclopropyl-8-(hydroxyethyl)imidazo[1,2-a]pyridin-2-yl)methyl)-1H-pyrazole-4-carboxamide] | < 1

same assay, conditions: comparative compounds (Table II); assay format with 500 pM (500 μM in the source) activated kallikrein; read-out: Primary Dose Response Assay: Average EC50

EC50 [nM] | SMILES
10 to 100 | O=C(NCc1nsc2ccc(Cl)cc12)c1cnn(Cc2cn3cc(C4CC4)ccc3n2)c1 [reference compound]
